Data set [1] deals with Hepatitis C virus. Briefly: Antiviral activity against HCV JFH-1 infected in human HuH7.5.1 cells after 48 hrs by luciferase reporter gene assay. To be noted: genotype 2a JFH-1, Huh-7, 48 h. Format: functional, cell-based, Hepacivirus hominis. A general note: A reporter such as luciferase makes a cellular process visible.
A short description of data set [2]: Cytotoxicity against human Huh7.5.1 cells after 48 hrs by luciferase reporter gene assay. It is filed as toxicity, cell-based, Huh-7.
The test system of data set [3] is Hepatitis C virus. In words: Antiviral activity against HCV infected in human Huh7 cells assessed as reduction in viral RNA replication after 4 days. Format: functional, cell-based, Hepacivirus hominis. The conditions noted are these: Huh-7, 96 h.

Drawing on ChEMBL document CHEMBL3867487, “Discovery of 2'-α-C-Methyl-2'-β-C-fluorouridine Phosphoramidate Prodrugs as Inhibitors of Hepatitis C Virus” (ACS Med Chem Lett, 2016), this text covers EC50, CC50 and EC90 for 22 compounds.

Usually EC50 stands for the concentration at which the effect is half-maximal. One may read the CC50 as the concentration giving 50% cytotoxicity. High values mean lower toxicity to the cells, low ones greater toxicity to the cells. A word on the EC90: it is the point of the concentration-response curve where the effect stands at 90%.

Structures are written as SMILES. Some results are limits rather than exact numbers.

Consider `C[C@H](NP(=O)(OC[C@H]1O[C@@H](n2ccc(=O)[nH]c2=O)[C@@](C)(F)[C@@H]1O)Oc1ccccc1)C(=O)OC1CCCCC1` (some centres undefined), for which, in the data set with Hepatitis C virus [1], the 50% effective concentration (EC50) was > 50 µM. Moreover, the CC50 at 48 h in data set [2] is > 100 µM.

For the compound `C[C@@]1(F)[C@H](O)[C@@H](CO)O[C@H]1n1ccc(N)nc1=O`, the EC50 in the data set with Hepatitis C virus [3] is 4.5 µM.

Regarding `CC(C)OC(=O)[C@H](Cc1c[nH]c2ccccc12)NP(=O)(OC[C@H]1O[C@@H](n2ccc(=O)[nH]c2=O)[C@@](C)(F)[C@@H]1O)Oc1ccccc1` (some centres undefined), in the data set with Hepatitis C virus [1], the concentration giving a half-maximal response (EC50) was > 50 µM. Moreover, the CC50 at 48 h in data set [2] is > 100 µM.

In the data set on Hepatitis C virus [1], `CC(C)OC(=O)[C@@H](Cc1c[nH]c2ccccc12)NP(=O)(OC[C@H]1O[C@@H](n2ccc(=O)[nH]c2=O)[C@@](C)(F)[C@@H]1O)Oc1ccccc1` (some centres undefined) had a concentration for a half-maximal effect (EC50) of 0.88 µM. In data set [2], the half-maximal cytotoxic concentration (CC50) at 48 h is > 100 µM.

As for `CCCCCOC(=O)[C@H](C)NP(=O)(OC[C@H]1O[C@@H](n2ccc(=O)[nH]c2=O)[C@@](C)(F)[C@@H]1O)Oc1ccccc1` (some centres undefined), the EC50 with Hepatitis C virus [1] was > 50 µM. In addition, the CC50 at 48 h in data set [2] was > 100 µM.

For `CC(C)OC(=O)CNP(=O)(OC[C@H]1O[C@@H](n2ccc(=O)[nH]c2=O)[C@@](C)(F)[C@@H]1O)Oc1ccccc1` (some centres undefined), in the data set with Hepatitis C virus [1], the EC50 was found to be 22.9 µM. For the same compound, the CC50 at 48 h in data set [2] is > 100 µM.

As for `CC(C)OC(=O)[C@H](C)NP(=O)(OC[C@H]1O[C@@H](n2ccc(=O)[nH]c2=O)[C@@](C)(F)[C@@H]1O)Oc1ccccc1` (some centres undefined), in the data set on Hepatitis C virus [1], the 50% effective concentration (EC50) stood at 34.2 µM. The CC50 at 48 h in data set [2] was > 100 µM.

`CCCOC(=O)[C@H](C)NP(=O)(OC[C@H]1O[C@@H](n2ccc(=O)[nH]c2=O)[C@@](C)(F)[C@@H]1O)Oc1ccccc1` (some centres undefined): in the data set on Hepatitis C virus [1], the EC50 is > 50 µM. Further, the CC50 at 48 h in data set [2] was > 100 µM.

For the compound `CSCC[C@@H](NP(=O)(OC[C@H]1O[C@@H](n2ccc(=O)[nH]c2=O)[C@@](C)(F)[C@@H]1O)Oc1ccccc1)C(=O)OC(C)C` (some centres undefined), the EC50 in the data set with Hepatitis C virus [1] was > 50 µM. In addition, the CC50 at 48 h in data set [2] was > 100 µM.

`CC(C)OC(=O)[C@@H](Cc1ccccc1)NP(=O)(OC[C@H]1O[C@@H](n2ccc(=O)[nH]c2=O)[C@@](C)(F)[C@@H]1O)Oc1ccccc1` (some centres undefined) showed a concentration for a half-maximal effect (EC50) in the data set with Hepatitis C virus [1] of 35.3 µM. For the same compound, in data set [2], the CC50 at 48 h is > 100 µM.

For the compound `CC(C)OC(=O)[C@@H](C)NP(=O)(OC[C@H]1O[C@@H](n2ccc(=O)[nH]c2=O)[C@@](C)(F)[C@@H]1O)Oc1ccccc1` (some centres undefined), in the data set on Hepatitis C virus [1], a half-maximal effect (EC50) was put at 34.3 µM. Besides, the CC50 at 48 h in data set [2] is > 100 µM.

In the case of `CCOC(=O)[C@H](C)NP(=O)(OC[C@H]1O[C@@H](n2ccc(=O)[nH]c2=O)[C@@](C)(F)[C@@H]1O)Oc1ccccc1` (some centres undefined), the EC50 in the data set with Hepatitis C virus [1] is > 50 µM. Further, the CC50 at 48 h in data set [2] is > 100 µM.

Turning to `CCCCCCOC(=O)[C@H](C)NP(=O)(OC[C@H]1O[C@@H](n2ccc(=O)[nH]c2=O)[C@@](C)(F)[C@@H]1O)Oc1ccccc1` (some centres undefined), the EC50 with Hepatitis C virus [1] was > 50 µM. In addition, in data set [2], the 50% cytotoxic concentration (CC50) at 48 h was > 100 µM.

In the data set on Hepatitis C virus [1], `CC(C)OC(=O)[C@H](NP(=O)(OC[C@H]1O[C@@H](n2ccc(=O)[nH]c2=O)[C@@](C)(F)[C@@H]1O)Oc1ccccc1)C(C)C` (some centres undefined) showed an EC50 of 1.82 µM. Also, the CC50 at 48 h in data set [2] was > 100 µM.

`C[C@]1(F)[C@H](O)[C@@H](CO)O[C@H]1n1ccc(=O)[nH]c1=O`: the response in the data set on Hepatitis C virus [1] was half-maximal at 14.7 µM (EC50). Also, the CC50 at 48 h in data set [2] was > 100 µM.

In the case of `CC(C)OC(=O)[C@H](C)N[P@](=O)(OC[C@H]1O[C@@H](n2ccc(=O)[nH]c2=O)[C@](C)(F)[C@@H]1O)Oc1ccccc1` [SOFOSBUVIR], in the data set on Hepatitis C virus [1], a half-maximal response (EC50) required 0.12 µM. Also, in data set [2], the CC50 at 48 h is > 100 µM. In addition, the EC90 in the data set with Hepatitis C virus [3] was 0.42 µM.

Turning to `CCCCOC(=O)[C@H](C)NP(=O)(OC[C@H]1O[C@@H](n2ccc(=O)[nH]c2=O)[C@@](C)(F)[C@@H]1O)Oc1ccccc1` (some centres undefined), the EC50 in the data set with Hepatitis C virus [1] is > 50 µM. Besides, the half-maximal cytotoxic concentration (CC50) at 48 h in data set [2] was > 100 µM.

In the data set with Hepatitis C virus [1], `CC(C)OC(=O)[C@H](Cc1ccccc1)NP(=O)(OC[C@H]1O[C@@H](n2ccc(=O)[nH]c2=O)[C@@](C)(F)[C@@H]1O)Oc1ccccc1` (some centres undefined) returned an EC50 of 33.3 µM. For the same compound, the half-maximal cytotoxic concentration (CC50) at 48 h in data set [2] is > 100 µM.

In turn, `CSCC[C@H](NP(=O)(OC[C@H]1O[C@@H](n2ccc(=O)[nH]c2=O)[C@@](C)(F)[C@@H]1O)Oc1ccccc1)C(=O)OC(C)C` (some centres undefined) showed a concentration for a half-maximal effect (EC50) with Hepatitis C virus [1] of 2.24 µM. Besides, the CC50 at 48 h in data set [2] is > 100 µM.

Consider `CC(C)OC(=O)[C@@H](NP(=O)(OC[C@H]1O[C@@H](n2ccc(=O)[nH]c2=O)[C@@](C)(F)[C@@H]1O)Oc1ccccc1)C(C)C` (some centres undefined), for which, in the data set on Hepatitis C virus [1], the EC50 is > 50 µM. Also, the CC50 at 48 h in data set [2] is > 100 µM.

On to `C[C@H](NP(=O)(OC[C@H]1O[C@@H](n2ccc(=O)[nH]c2=O)[C@@](C)(F)[C@@H]1O)Oc1ccccc1)C(=O)OCc1ccccc1` (some centres undefined), for which, in the data set on Hepatitis C virus [1], the EC50 was > 50 µM. In addition, in data set [2], the cytotoxic concentration (CC50) at 48 h was > 100 µM.

`COC(=O)[C@H](C)NP(=O)(OC[C@H]1O[C@@H](n2ccc(=O)[nH]c2=O)[C@@](C)(F)[C@@H]1O)Oc1ccccc1` (some centres undefined): the EC50 in the data set on Hepatitis C virus [1] was > 50 µM. Further, the 50% cytotoxic concentration (CC50) at 48 h in data set [2] is > 100 µM.
